Results reported in patent publication US9951065B2 (Gilead Sciences, Inc., priority 2015, dated 2018).

Target: T1, IDO1 (Homo sapiens, UniProt P14902)
T1 construct: HeLa cells were treated with a test compound in the presence of IFNγ, which induces IDO1 expression; host or cells: H1-HeLa cells, IDO1 induced with IFNγ
Assay: Cell-based (HeLa) assay for measurement of IDO1 inhibition (kynurenine levels in supernatant after IFNγ induction)
Settings: HeLa cells, geometric mean of a minimum of four determinations
Procedure: Example 509. Cell-Based (HeLa) Assay for Measurement of IDOL Inhibition
To measure IDO1 inhibition in tissue culture, HeLa cells were treated with a test compound in the presence of IFNγ, which induces IDO1 expression. Following incubation, cell supernatants were assayed for kynurenine levels, an indicator of IDO1 activity.
H1-HeLa cells (ATCC #CRL-1958) were seeded in 384-well plates (Greiner #82051-282) at a volume of 50 μL/well in DMEM (Corning #15-018-CM) supplemented with 10% FBS (Corning #35-011-CV) and 1% P/S/G (Corning #30-009-CL) at a density of 1,250 cells/well and incubated overnight at 37° C., 5% CO2/100% humidity. The following day, the test compounds were added in DMSO (0.5% final) at various concentrations, and IDO1 was inducibly expressed by the addition of 50 uL/well of […] of INFγ (Peprotech #300-02) in cell plating media. As a […] control, 50 uL of the cell plating media without IFNγ was added to several wells. Following a 48 hour incubation, the plates were spun down at 1,200 RPM for 5 min at 10° C. 65 μL/well of the supernatant was then transferred to new 384-well plates (Thermo #262160) that contained 10 uL/well of 30% TCA (Sigma #TO699), and the plates were sealed and incubated at 60° C. for 30 min. The plates were then centrifuged for 15 min at 2,000 RPM at 10° C. 40 μL/well of the supernatant was transferred to new 384-well plates (Thermo #262160) and was reacted with 40 μL/well of 2% (w/v) p-dimethlyaminobenzaldehyde (Sigma #156417) in glacial acetic acid (Sigma #A6283). The reaction was incubated at room temperature for 10 min and absorbance at 480 nm was read using a PerkinElmer Envision plate reader.
Data in Table 1 were normalized based on positive (−IFNγ) and negative (+IFNγ) controls and EC50 values were calculated from the fit of the dose response curves to a four-parameter equation. All EC50 values represent geometric mean values of a minimum of four determinations. These assays generally produced results within 2-fold of the reported mean.

[1] = IFNγ-induced IDO1, kynurenine in supernatant, 48 hour incubation
[2] = IFNγ-induced IDO1, kynurenine in supernatant after 48 hour incubation

T1 sequence (P14902 whole entry): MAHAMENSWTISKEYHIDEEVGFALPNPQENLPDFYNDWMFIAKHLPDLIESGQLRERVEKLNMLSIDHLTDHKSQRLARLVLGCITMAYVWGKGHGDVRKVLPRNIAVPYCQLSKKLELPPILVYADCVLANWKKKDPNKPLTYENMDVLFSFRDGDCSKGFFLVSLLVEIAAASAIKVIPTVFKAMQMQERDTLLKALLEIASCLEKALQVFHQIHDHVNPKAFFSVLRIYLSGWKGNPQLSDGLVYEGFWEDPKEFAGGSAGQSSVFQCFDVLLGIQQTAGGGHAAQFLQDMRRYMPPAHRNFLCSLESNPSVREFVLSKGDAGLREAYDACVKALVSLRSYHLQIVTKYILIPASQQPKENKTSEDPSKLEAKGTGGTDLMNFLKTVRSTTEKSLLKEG

| SMILES | EC50 [1] | EC50 [2] |
| --- | --- | --- |
| CS(=O)(=O)NCCNc1nc2c(F)c(F)cc(/C(=N/O)Nc3ccc(F)c(Cl)c3)c2[nH]1 [Example 335, N-(3-chloro-4-fluorophenyl)-4,5-difluoro-N′-hydroxy-2-((2-(methylsulfonamido)ethyl)amino)-1H-benzo[d]imidazole-7-carboximidamide] | > 10000 nM | – |
| O/N=C(\Nc1ccc(F)c(Cl)c1)c1ccnc2nc(NC3CC3)[nH]c12 [Example 154, N-(3-Chloro-4-fluorophenyl)-2-(cyclopropylamino)-N′-hydroxy-1H-imidazo[4,5-b]pyridine-7-carboximidamide] | – | 529 nM |
| OCCCNCc1nc2nccc(/C(=N/O)Nc3ccc(F)c(Cl)c3)c2[nH]1 [Example 138, N-(3-Chloro-4-fluorophenyl)-N′-hydroxy-2-(((3-hydroxypropyl)amino)methyl)-1H-imidazo[4,5-b]pyridine-7-carboximidamide] | – | 8240 nM |
| CO[C@@H]1CN(C)C[C@H]1Nc1nc2c(F)c(F)cc(/C(=N/O)Nc3ccc(F)c(Cl)c3)c2[nH]1 [Example 458, N-(3-chloro-4-fluorophenyl)-4,5-difluoro-N′-hydroxy-2-(((3R,4R)-4-methoxy-1-methylpyrrolidin-3-yl)amino)-1H-benzo[d]imidazole-7-carboximidamide] | 261 nM | – |
| O/N=C(\Nc1ccc(F)c(Cl)c1)c1ccnc2nc(N3CC[C@H](O)C3)[nH]c12 [Example 280, (S)—N-(3-chloro-4-fluorophenyl)-N′-hydroxy-2-(3-hydroxypyrrolidin-1-yl)-1H-imidazo[4,5-b]pyridine-7-carboximidamide] | – | > 10000 nM |
| CN(C)Cc1nc2c(F)ccc(/C(=N/O)Nc3ccc(F)c(Cl)c3)c2[nH]1 [Example 288, N-(3-chloro-4-fluorophenyl)-2-((dimethylamino)methyl)-4-fluoro-N′-hydroxy-1H-benzo[d]imidazole-7-carboximidamide] | – | 1820 nM |
| CN1CC[C@H](Nc2nc3c(F)c(F)cc(/C(=N/O)Nc4ccc(F)c(Cl)c4)c3[nH]2)C1 [Example 447, (S)—N-(3-chloro-4-fluorophenyl)-4,5-difluoro-N′-hydroxy-2-((1-methylpyrrolidin-3-yl)amino)-1H-benzo[d]imidazole-7-carboximidamide] | 325 nM | – |
| CN(C)Cc1nc2c(F)c(F)cc(/C(=N/O)Nc3cccc(Cl)c3)c2[nH]1 [Example 26, N-(3-Chlorophenyl)-2-((dimethylamino)methyl)-4,5-difluoro-N′-hydroxy-1H-benzo[d]imidazole-7-carboximidamide] | – | 1210 nM |
| O/N=C(\Nc1ccc(F)c(OC(F)(F)F)c1)c1ccnc2nc[nH]c12 [Example 101, N-(4-Fluoro-3-(trifluoromethoxy)phenyl)-N′-hydroxy-1H-imidazo[4,5-b]pyridine-7-carboximidamide] | – | 845 nM |
| CN(C)CCNc1nc2c(F)c(F)cc(/C(=N/O)Nc3ccc(F)c(Cl)c3)c2[nH]1 [Example 43, N-(3-Chloro-4-fluorophenyl)-2-((2-(dimethylamino)ethyl)amino)-4,5-difluoro-N′-hydroxy-1H-benzo[d]imidazole-7-carboximidamide] | – | 136 nM |
| O/N=C(\Nc1cc(Br)ccc1F)c1ccnc2nc[nH]c12 [Example 71, N-(5-Bromo-2-fluorophenyl)-N′-hydroxy-1H-imidazo[4,5-b]pyridine-7-carboximidamide] | – | 207 nM |
| COCCCNCc1nc2c(F)c(F)cc(/C(=N/O)Nc3cccc(Cl)c3)c2[nH]1 [Example 24, N-(3-Chlorophenyl)-4,5-difluoro-N′-hydroxy-2-(((3-methoxypropyl)amino)methyl)-1H-benzo[d]imidazole-7-carboximidamide] | – | 1920 nM |
| O/N=C(\Nc1ccc(F)c(C2CC2)c1)c1ccnc2nc[nH]c12 [Example 65, N-(3-Cyclopropyl-4-fluorophenyl)-N′-hydroxy-1H-imidazo[4,5-b]pyridine-7-carboximidamide] | – | 1810 nM |
| O/N=C(\Nc1ccc(F)c(Cl)c1)c1ccnc2nc(CCN3CC4CCC(C4)C3)[nH]c12 [Example 277, 2-(2-(3-azabicyclo[3.2.1]octan-3-yl)ethyl)-N-(3-chloro-4-fluorophenyl)-N′-hydroxy-1H-imidazo[4,5-b]pyridine-7-carboximidamide] | – | 576 nM |
| O/N=C(\Nc1ccc(F)c(Cl)c1)c1ccnc2nc(CNC3CC3)[nH]c12 [Example 119, N-(3-Chloro-4-fluorophenyl)-2-((cyclopropylamino)methyl)-N′-hydroxy-1H-imidazo[4,5-b]pyridine-7-carboximidamide] | – | 2150 nM |
| CNCc1nc2c(F)c(F)cc(/C(=N/O)Nc3cccc(Cl)c3)c2[nH]1 [Example 30, N-(3-Chlorophenyl)-4,5-difluoro-N′-hydroxy-2-((methylamino)methyl)-1H-benzo[d]imidazole-7-carboximidamide] | – | 1110 nM |
| CC(C)c1cc(N/C(=N\O)c2ccnc3nc[nH]c23)ccc1F [Example 93, N-(4-Fluoro-3-isopropylphenyl)-N′-hydroxy-1H-imidazo[4,5-b]pyridine-7-carboximidamide] | – | 5100 nM |
| CS(=O)(=O)NCCc1nc2c(F)c(F)cc(/C(=N/O)Nc3ccc(F)c(Cl)c3)c2[nH]1 [Example 210, N-(3-chloro-4-fluorophenyl)-4,5-difluoro-N′-hydroxy-2-(2-(methylsulfonamido)ethyl)-1H-benzo[d]imidazole-7-carboximidamide] | – | > 10000 nM |
| NS(=O)(=O)CCNc1nc2nccc(/C(=N/O)Nc3ccc(F)c(Cl)c3)c2[nH]1 [Example 492, N-(3-chloro-4-fluorophenyl)-N′-hydroxy-2-((2-sulfamoylethyl)amino)-1H-imidazo[4,5-b]pyridine-7-carboximidamide] | 5660 nM | – |
| COc1ccccc1CNCc1nc2nccc(/C(=N/O)Nc3ccc(F)c(Cl)c3)c2[nH]1 [Example 123, N-(3-Chloro-4-fluorophenyl)-N′-hydroxy-2-(((2-methoxybenzyl)amino)methyl)-1H-imidazo[4,5-b]pyridine-7-carboximidamide] | – | 1910 nM |
| CN(C)[C@@H]1CCCC[C@H]1Nc1nc2c(F)c(F)cc(/C(=N/O)Nc3ccc(F)c(Cl)c3)c2[nH]1 [Example 437, N-(3-chloro-4-fluorophenyl)-2-(((1R,2R)-2-(dimethylamino)cyclohexyl)amino)-4,5-difluoro-N′-hydroxy-1H-benzo[d]imidazole-7-carboximidamide] | 998 nM | – |
| O/N=C(\Nc1ccc(F)c(Cl)c1)c1cc(F)c(F)c2nc(N[C@@H]3CCCCNC3)[nH]c12 [Example 463, (R)-2-(azepan-3-ylamino)-N-(3-chloro-4-fluorophenyl)-4,5-difluoro-N′-hydroxy-1H-benzo[d]imidazole-7-carboximidamide] | 1020 nM | – |
| CCOC(=O)Nc1nc2nccc(/C(=N/O)Nc3ccc(F)c(Cl)c3)c2[nH]1 [Example 160, Ethyl (7-(N-(3-chloro-4-fluorophenyl)-N′-hydroxycarbamimidoyl)-1H-imidazo[4,5-b]pyridin-2-yl)carbamate] | – | 423 nM |
| CN(CCNc1nc2nccc(/C(=N/O)Nc3ccc(F)c(Cl)c3)c2[nH]1)C1CCOCC1 [Example 239, N-(3-chloro-4-fluorophenyl)-N′-hydroxy-2-((2-(methyl(tetrahydro-2H-pyran-4-yl)amino)ethyl)amino)-1H-imidazo[4,5-b]pyridine-7-carboximidamide] | – | 1210 nM |
| CN(CCc1nc2nccc(/C(=N/O)Nc3ccc(F)c(Cl)c3)c2[nH]1)CCC1CCOCC1 [Example 401, N-(3-chloro-4-fluorophenyl)-N′-hydroxy-2-(2-(methyl(2-(tetrahydro-2H-pyran-4-yl)ethyl)amino)ethyl)-1H-imidazo[4,5-b]pyridine-7-carboximidamide] | 581 nM | – |
| CN(C)CCNc1nc2c(F)ccc(/C(=N/O)Nc3ccc(F)c(Cl)c3)c2[nH]1 [Example 201, N-(3-Chloro-4-fluorophenyl)-2-[2-(dimethylamino)ethylamino]-7-fluoro-N′-hydroxy-3H-benzimidazole-4-carboximidamide] | – | 428 nM |
| NCc1nc2nccc(/C(=N/O)Nc3ccc(F)c(Cl)c3)c2[nH]1 [Example 179, 2-(Aminomethyl)-N-(3-chloro-4-fluorophenyl)-N′-hydroxy-1H-imidazo[4,5-b]pyridine-7-carboximidamide] | – | 7660 nM |
| CN1CCCCC1Cc1nc2nccc(/C(=N/O)Nc3ccc(F)c(Cl)c3)c2[nH]1 (stereo not shown) [Example 305, N-(3-chloro-4-fluorophenyl)-N′-hydroxy-2-((1-methylpiperidin-2-yl)methyl)-1H-imidazo[4,5-b]pyridine-7-carboximidamide] | 3490 nM | – |
